For two compounds, IC50 results are on record in article PMC3339042 (2012).

Assay [1] deals with T1, ubiquitin E1 (UBA1) (Homo sapiens, UniProt P22314).
T1 sequence (P22314 2-1058): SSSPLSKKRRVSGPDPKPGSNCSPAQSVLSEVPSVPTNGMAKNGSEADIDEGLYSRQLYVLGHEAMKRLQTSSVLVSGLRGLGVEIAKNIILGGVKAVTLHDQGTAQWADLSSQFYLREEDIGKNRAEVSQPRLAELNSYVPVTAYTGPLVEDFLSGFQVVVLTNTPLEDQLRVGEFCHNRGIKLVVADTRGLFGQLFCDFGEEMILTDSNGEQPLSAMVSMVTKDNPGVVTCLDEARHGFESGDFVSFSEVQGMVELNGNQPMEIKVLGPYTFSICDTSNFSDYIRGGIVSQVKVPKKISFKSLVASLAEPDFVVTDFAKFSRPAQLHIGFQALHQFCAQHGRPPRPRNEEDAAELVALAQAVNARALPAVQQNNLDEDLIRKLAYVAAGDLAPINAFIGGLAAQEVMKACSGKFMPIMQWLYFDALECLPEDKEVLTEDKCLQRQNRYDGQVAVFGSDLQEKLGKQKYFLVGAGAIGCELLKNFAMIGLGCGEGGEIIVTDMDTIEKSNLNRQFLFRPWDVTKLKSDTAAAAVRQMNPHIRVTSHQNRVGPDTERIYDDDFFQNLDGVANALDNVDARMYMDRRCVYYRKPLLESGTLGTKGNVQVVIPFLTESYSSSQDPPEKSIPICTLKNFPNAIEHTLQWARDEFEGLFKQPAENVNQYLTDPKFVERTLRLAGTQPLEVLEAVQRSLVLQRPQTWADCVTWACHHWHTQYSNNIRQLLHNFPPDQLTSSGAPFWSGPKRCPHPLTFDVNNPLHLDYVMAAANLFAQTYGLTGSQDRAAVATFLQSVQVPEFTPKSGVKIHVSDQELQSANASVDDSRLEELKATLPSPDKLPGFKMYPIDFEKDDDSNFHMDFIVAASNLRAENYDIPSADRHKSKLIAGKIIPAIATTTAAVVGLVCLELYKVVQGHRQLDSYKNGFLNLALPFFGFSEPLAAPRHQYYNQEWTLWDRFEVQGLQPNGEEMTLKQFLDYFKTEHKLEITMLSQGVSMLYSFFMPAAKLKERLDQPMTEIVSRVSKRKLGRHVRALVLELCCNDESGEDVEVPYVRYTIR
Description: […]-AMP:[α-32P]-ATP exchange TLC assay. The format is biochemical.

Assay [2] concerns the target T1, ubiquitin E1 (UBA1). The experiment in a line: E1-ubiquitin thioester gel assay with fluorescein-ubiquitin without E2. Format: biochemical.

pIC50: −log10 of the molar value.

In general, pIC50 refers to the negative decadic logarithm of the IC50, by convention in mol/L. Higher therefore signals a low IC50.

As for `CCOC(=O)c1ccc(N2NC(=O)C(=Cc3ccc([N+](=O)[O-])o3)C2=O)cc1` [PYR-41], the pIC50 at ubiquitin E1 (UBA1) [1] is 5.19.
As to `CCCCCCCCCCNCCSSCc1ccc(Cl)cc1` [compound 1, NSC624206], the pIC50 against ubiquitin E1 (UBA1) [2] is about 5.05.
